Structures can show the parent of a compound that is named as a salt. Where two headings read alike, the source gives them in different places.
Test system: Malassezia furfur
Test: ΣFIC assay against Malassezia furfur (checkerboard in-vitro susceptibility testing, alamar blue)
Format: cell-based, M. furfur (CBS 1878)
Experimental: A brief description of the method is given below.
Methods: ΣFIC Assay Against Malassezia furfur
They are then incubated at 32° C. for 48 hrs with shaking. Then, 1 ml of the first broth culture is transferred into 9 ml of fresh PB and incubated at 32° C. for 48 hrs with shaking. The final culture should contain 2 to 6×10^6 cells/ml. This is achieved by diluting using PB to 5*10^6 cell/ml.
The piperazine compound was serially diluted (2-fold) to prepare in a range of 10-10,000 ppm in growth medium.
Binary combinations of ZPTO and the testing compound were prepared in 96-well plate by mixing 20 μl of zinc pyrithione solution with 20 μl of testing compound. The solution in each well were further mixed with 160 μl of PB and 20 μl of M. furfur. The final cell density in the testing plate is around 5*10^4 cell/ml, and the final concentration of actives in each well of the 96-well plate were shown below.
The plate was incubated at 32° C. for one day. Then 20 μl of alamar blue (0.01%) was added into each well with a further incubation for one day to observe the color change. Red color indicates microbial growth and the non-changing blue color indicates no growth.
The MIC is defined as the absolute lowest concentration of active that provides complete microbial growth inhibition as indicated by the blue color of alamar blue under the tested condition.
The differing behaviours of inhibitory antimicrobials in isolation and mixtures have been widely explored using the concept of the Fractional Concentration (FC) and Fractional Inhibitory Concentration (FIC). The parameter can be defined as follows: […]
The interactions between antimicrobials can be additive, synergistic or antagonistic depending on whether the efficacy of the combination is equivalent to, greater than or less than that obtained for the same total concentration of the individual components when tested alone.
These relationships can be expressed mathematically by summing the fractional MIC values for all the components present in the mixture to give the “fractional inhibition index”. There is no consistent approach in the academic or patent literature in defining precise limiting ΣFIC values that differentiate synergy from additivity or antagonism. In this study, we have adopted a liberal approach defining any binary mixture with ΣFIC<0.9 as showing evidence of synergistic behavior.
ΣFIC=FIC (component 1)+FIC (component 2)
ΣFIC=1 corresponds to additive bactericidal activity
ΣFIC>1 corresponds to antagonistic bactericidal activity
ΣFIC<0.9 corresponds to synergistic bactericidal activity

[1] = CBS1878, active alone, M. furfur CBS 1878 in Pityrosporum Broth, 32° C., complete growth inhibition by alamar blue, read-out: Minimum Inhibition Concentration (MIC)
[2] = CBS1878, read-out: Minimum Inhibition Concentration (MIC)

SMILES	MIC [1] [µg/mL]	MIC [2] [µg/mL]
O=C(c1ccccc1F)N1CCN(C2CCC(c3ccccc3)CC2)CC1 (centres unmarked) [1-(2-fluorobenzoyl)-4-(4-phenylcylcohexyl)piperazine]	100	–
CC(C)C(=O)N1CCN(c2ccc(F)cc2)CC1 [1-(4-fluorophenyl)-4-isobutyrylpiperazine]	> 1000	–
CCc1ccc(CN2CCN(C3CCC(C)CC3)CC2)cc1 (centres unmarked) [1-(4-ethylbenzyl)-4-(4-methylcyclohexyl)piperazine oxalate]	–	125
CCc1ccc(CN2CCN(Cc3cccc(Cl)c3)CC2)cc1 [1-(3-chlorobenzyl)-4-(4-ethylbenzyl)piperazine oxalate]	–	> 1000
CC(C)C(=O)N1CCN(c2ccccc2)CC1 [1-isobutyryl-4-phenylpiperazine]	> 1000	–
